Test results taken from ChEMBL document CHEMBL1158437, “The discovery of the potent aurora inhibitor MK-0457 (VX-680)” (Bioorg Med Chem Lett, 2009).
≈ marks a conversion by molar mass, not a printed value. Calls of active or inactive are those of the source. The calls are words filed in the database; no cut-off is given here.

Legend:
[1] = target: T1, Aurora kinase B (Homo sapiens, UniProt Q96GD4); test: Inhibition of Aurora-B
[2] = target: T2, Aurora kinase C (Homo sapiens, UniProt Q9UQB9); test: Inhibition of Aurora-C
T2 sequence (Q9UQB9 whole entry): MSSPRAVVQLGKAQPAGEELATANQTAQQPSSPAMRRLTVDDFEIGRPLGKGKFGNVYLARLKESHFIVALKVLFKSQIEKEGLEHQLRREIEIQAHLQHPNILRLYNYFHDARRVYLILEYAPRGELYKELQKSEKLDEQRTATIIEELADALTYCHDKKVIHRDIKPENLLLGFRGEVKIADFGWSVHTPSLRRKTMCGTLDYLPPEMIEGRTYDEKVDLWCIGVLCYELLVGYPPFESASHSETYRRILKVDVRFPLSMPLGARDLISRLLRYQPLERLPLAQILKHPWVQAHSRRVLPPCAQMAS

[3] = Half life in rat; type: ADME, organism-based; settings: in vivo
[4] = Bioavailability in rat; type: ADME, organism-based; settings: in vivo
[5] = target: T3, Aurora kinase A (Homo sapiens, UniProt O14965)
T3 sequence (O14965 whole entry): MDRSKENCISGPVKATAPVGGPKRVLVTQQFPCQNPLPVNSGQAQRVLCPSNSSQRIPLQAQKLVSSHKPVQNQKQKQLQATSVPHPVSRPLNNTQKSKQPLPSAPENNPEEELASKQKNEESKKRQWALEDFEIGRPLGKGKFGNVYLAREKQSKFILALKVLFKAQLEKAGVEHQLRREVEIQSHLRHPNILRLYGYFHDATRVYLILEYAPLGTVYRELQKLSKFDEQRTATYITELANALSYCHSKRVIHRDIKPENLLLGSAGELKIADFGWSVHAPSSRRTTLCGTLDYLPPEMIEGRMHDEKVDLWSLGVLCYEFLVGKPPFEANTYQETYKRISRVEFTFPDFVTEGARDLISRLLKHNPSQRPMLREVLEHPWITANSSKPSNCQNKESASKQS
Description: Inhibition of Aurora-A by coupled assay

[6] = test system: COLO 205; test: Antiproliferative activity against human COLO205 cells by [3H]thymidine uptake assay; type: functional, cell-based; settings: for Activity: TDE = time-dependent effect
[7] = Aqueous solubility at pH 7.4; type: physicochemical; settings: buffer
[8] = target: Proto-oncogene tyrosine-protein kinase Src (Homo sapiens, UniProt P12931); test: Inhibition of Src
Proto-oncogene tyrosine-protein kinase Src, sequence (P12931 2-536 limits assumed): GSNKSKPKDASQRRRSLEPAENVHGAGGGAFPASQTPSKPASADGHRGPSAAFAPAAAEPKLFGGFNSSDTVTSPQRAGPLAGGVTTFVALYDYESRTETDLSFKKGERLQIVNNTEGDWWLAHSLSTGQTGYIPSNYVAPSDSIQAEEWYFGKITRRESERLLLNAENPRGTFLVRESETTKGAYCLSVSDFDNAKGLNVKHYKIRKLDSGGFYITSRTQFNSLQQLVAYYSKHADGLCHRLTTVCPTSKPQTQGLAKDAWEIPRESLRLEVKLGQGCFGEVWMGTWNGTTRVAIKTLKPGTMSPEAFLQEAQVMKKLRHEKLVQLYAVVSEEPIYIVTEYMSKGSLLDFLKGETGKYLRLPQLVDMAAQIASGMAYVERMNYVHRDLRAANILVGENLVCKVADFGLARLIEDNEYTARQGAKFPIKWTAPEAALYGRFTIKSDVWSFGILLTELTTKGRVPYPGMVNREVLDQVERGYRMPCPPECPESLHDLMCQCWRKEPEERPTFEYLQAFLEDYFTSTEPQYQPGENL

[9] = target: T1, Aurora kinase B; test: Inhibition of Aurora-B by time dependent kinetic study
[10] = test system: COLO 205; test: Induction of apoptosis in human COLO205 cells by TUNEL staining; type: functional, cell-based
[11] = test system: COLO 205; test: Induction of apoptosis in human COLO205 cells by annexin V binding; type: functional, cell-based
[12] = test system: MCF7; test: Antitumor activity against human MCF7 cells xenograft model assessed as tumor growth inhibition at 300 mg/kg, po bid; type: functional; settings: read-out: GI
[13] = test system: COLO 205; test: Induction of apoptosis in human COLO205 cells assessed as DNA fragmentation by ELISA; type: functional, cell-based
[14] = test system: COLO 205; test: Cytotoxicity against human COLO205 cells after 48 hrs by MTS assay; type: functional, cell-based; settings: COLO 205, 48 h
[15] = target: Glycogen synthase kinase-3 beta (Homo sapiens, UniProt P49841)
Glycogen synthase kinase-3 beta, sequence (P49841 whole entry): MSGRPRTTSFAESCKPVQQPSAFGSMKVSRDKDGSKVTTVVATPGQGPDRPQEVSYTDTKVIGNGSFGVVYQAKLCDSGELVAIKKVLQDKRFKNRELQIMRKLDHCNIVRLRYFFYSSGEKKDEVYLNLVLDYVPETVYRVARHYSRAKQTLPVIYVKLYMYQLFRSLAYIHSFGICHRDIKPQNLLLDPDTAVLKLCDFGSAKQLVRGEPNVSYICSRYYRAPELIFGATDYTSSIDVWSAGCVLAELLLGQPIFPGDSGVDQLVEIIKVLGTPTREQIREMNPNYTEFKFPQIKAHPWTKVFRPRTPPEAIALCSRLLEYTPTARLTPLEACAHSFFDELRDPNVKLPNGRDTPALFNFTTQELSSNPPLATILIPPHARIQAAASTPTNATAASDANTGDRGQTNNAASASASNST

T1 sequence (Q96GD4 whole entry): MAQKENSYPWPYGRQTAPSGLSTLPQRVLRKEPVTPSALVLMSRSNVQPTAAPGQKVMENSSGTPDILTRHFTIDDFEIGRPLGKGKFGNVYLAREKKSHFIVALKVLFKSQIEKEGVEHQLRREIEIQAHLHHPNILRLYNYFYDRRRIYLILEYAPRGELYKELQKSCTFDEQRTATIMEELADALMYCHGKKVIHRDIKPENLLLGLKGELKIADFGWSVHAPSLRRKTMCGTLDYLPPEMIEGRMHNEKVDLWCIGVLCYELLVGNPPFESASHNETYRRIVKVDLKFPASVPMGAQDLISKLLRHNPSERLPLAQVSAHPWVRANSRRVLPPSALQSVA

Cc1cc(Nc2nc(Sc3cccc(Cl)c3)nc3ccccc23)n[nH]1
Ki [1]: 185 nM

CC(=O)Nc1ccc(Sc2nc(Nc3cc(C)[nH]n3)c3ccccc3n2)cc1
Ki [2]: 11 nM
half-life [3]: 1.5 h
bioavailability [4]: 40%

CCC(=O)Nc1ccc(Sc2nc(Nc3cc(C)[nH]n3)cc(N3CCN(C)CC3)n2)cc1
Ki [5]: 1.6 nM
Activity [6]: tde
Ki [1]: 20 nM
solubility [7]: 63.4 µg/mL (≈ 140 µM)

CC(=O)Nc1ccc(Sc2nc(Nc3cc[nH]n3)c3ccccc3n2)cc1
IC50 [6]: 2200 nM
Ki [1]: > 1100 nM

Cc1cc(Nc2cc(N3CCN(C)CC3)nc(Sc3ccc(NC(=O)C4CC4)cc3)n2)[nH]n1 [TOZASERTIB]
solubility [7]: 6.8 µg/mL (≈ 14.6 µM)

CC(=O)Nc1ccc(Sc2nc(Nc3cc(C4CC4)[nH]n3)c3ccccc3n2)cc1
IC50 [6]: 210 nM
Ki [1]: 15 nM

Cc1cc(Nc2nc(Sc3ccccc3)nc3ccccc23)n[nH]1
Ki [1]: 590 nM

Cc1cc(Nc2nc(Sc3ccc(NS(C)(=O)=O)cc3)nc3ccccc23)n[nH]1
IC50 [6]: 780 nM
Ki [1]: 230 nM

COc1ccccc1Sc1nc(Nc2cc(C)[nH]n2)c2ccccc2n1
Ki [1]: 995 nM
Ki [8]: > 1000 nM

CCC(=O)Nc1ccc(Sc2nc(Nc3cc(C)n[nH]3)cc(N3CCN(C(C)(C)C)CC3)n2)cc1
half-life [3]: 8 h
Ki [5]: 1.3 nM
Ki [1]: 11 nM
Ki [9]: 0.8 nM
solubility [7]: 221 µg/mL (≈ 446 µM)

CCC(=O)Nc1ccc(Sc2nc(Nc3cc(C)n[nH]3)cc(C3CC3)n2)cc1
Ki [5]: 3.9 nM
IC50 [6]: 1420 nM
Ki [1]: 59 nM

CC(=O)Nc1ccc(Sc2nc(Nc3cc(C)n[nH]3)c3ccccc3n2)cc1
Activity [10]: Active
Activity [11]: Active
inhibition in vivo at 300 mg/kg [12]: 50%
Activity [13]: Active
IC50 [14]: 8500 nM

CCC(=O)Nc1ccc(Sc2nc(Nc3cc(C)[nH]n3)c3ccccc3n2)cc1
IC50 [6]: 830 nM
Ki [1]: 57 nM

Cc1cc(Nc2nc(Sc3ccc(NC(=O)C4CC4)cc3)nc3ccccc23)n[nH]1
IC50 [6]: 910 nM
Ki [1]: 51 nM

Cc1cc(Nc2nc(-c3ccncc3)nc3ccccc23)n[nH]1
Ki [15]: 73 nM
Ki [5]: 81 nM
Ki [8]: 181 nM

CCC(=O)Nc1ccc(Sc2nc(Nc3cc(C)[nH]n3)cc(-c3ccncc3)n2)cc1
Ki [5]: < 3 nM
IC50 [6]: 1000 nM
Ki [1]: 49 nM

CCC(=O)Nc1ccc(Sc2nc(C)cc(Nc3cc(C)n[nH]3)n2)cc1
Ki [5]: 5.1 nM
IC50 [6]: 720 nM
Ki [1]: 153 nM
solubility [7]: 4.2 µg/mL (≈ 11.4 µM)

CCC(=O)Nc1ccc(Sc2nc(Nc3cc(C)[nH]n3)cc(N3CCNCC3)n2)cc1
Activity [6]: tde

CC(=O)Nc1ccc(Sc2nc(C)cc(Nc3cc(C)n[nH]3)n2)cc1
Ki [5]: 18 nM
IC50 [6]: 2000 nM
Ki [1]: 220 nM
solubility [7]: < 1 µg/mL

CCC(=O)Nc1ccc(Sc2nc(Nc3cc(C)[nH]n3)cc(C(C)(C)C)n2)cc1
Ki [5]: 10 nM
IC50 [6]: 2000 nM
Ki [1]: 115 nM
solubility [7]: 11.2 µg/mL (≈ 27.3 µM)

Cc1cc(Nc2nc(Sc3ccccc3Cl)nc3ccccc23)n[nH]1
Ki [1]: 445 nM

CCC(=O)Nc1ccc(Sc2nc(Nc3cc(C)[nH]n3)cc(-c3cccnc3)n2)cc1
Ki [5]: 3.9 nM
IC50 [6]: 470 nM
Ki [1]: 52 nM
solubility [7]: < 1 µg/mL

Cc1cc(Nc2nc(Sc3ccc4ccccc4c3)nc3ccccc23)n[nH]1
Ki [15]: > 150 nM
IC50 [6]: > 12000 nM
Ki [1]: > 40 nM
Ki [8]: > 500 nM

Cc1cc(Nc2nc(Sc3ccc(Cl)cc3)nc3ccccc23)n[nH]1
Ki [1]: > 1100 nM

Cc1cc(Nc2nc(Sc3cccc(Cl)c3Cl)nc3ccccc23)n[nH]1
Ki [1]: 675 nM

CCC(=O)Nc1ccc(Sc2nc(Nc3cc(C)[nH]n3)cc(N3CCC3)n2)cc1
Ki [5]: 2.4 nM
IC50 [6]: 730 nM
Ki [1]: 23 nM

CCC(=O)Nc1ccc(Sc2nc(Nc3cc(C)n[nH]3)cc(N3CCN(C4CC4)CC3)n2)cc1
Ki [5]: < 1 nM
Ki [1]: 9.5 nM
solubility [7]: 12.8 µg/mL (≈ 26.7 µM)

CCC(=O)Nc1ccc(Sc2nc(Nc3cc(C)n[nH]3)cc(N3CCCCC3)n2)cc1
Ki [5]: 1.6 nM
Ki [1]: 8 nM

CCC(=O)Nc1ccc(Sc2nc(Nc3cc(C)[nH]n3)cc(N3CCN(CC)CC3)n2)cc1
Activity [6]: tde

Cc1cc(Nc2nc(Sc3c(Cl)cccc3Cl)nc3ccccc23)n[nH]1
Ki [1]: > 1100 nM

CC(=O)N(C)c1ccc(Sc2nc(Nc3cc(C)[nH]n3)c3ccccc3n2)cc1
Ki [5]: < 1 nM
IC50 [6]: 5770 nM
Ki [1]: 105 nM
Ki [8]: 796 nM

Cc1cc(Nc2nc(Sc3ccc(Cl)c(Cl)c3)nc3ccccc23)n[nH]1
Ki [1]: > 40 nM
Ki [8]: > 38 nM

CC(=O)Nc1ccc(Sc2nc(Nc3cc(C)[nH]n3)cc(-c3ccccc3)n2)cc1
Ki [5]: 2.4 nM
Ki [1]: 83 nM

COc1ccc(Sc2nc(Nc3cc(C)[nH]n3)c3ccccc3n2)cc1
Ki [1]: 575 nM

CCC(=O)Nc1ccc(Sc2nc(Nc3cc(C)[nH]n3)cc(N3CCN(C4CC4)CC3)n2)cc1
Activity [6]: tde

CC(=O)Nc1ccc(Sc2nccc(Nc3cc(C)[nH]n3)n2)cc1
Ki [5]: 86 nM
IC50 [6]: 4050 nM
Ki [1]: 207 nM
solubility [7]: 13.8 µg/mL (≈ 40.5 µM)

CCC(=O)Nc1ccc(Sc2nc(Nc3cc(C)n[nH]3)cc(N3CCNCC3)n2)cc1
Ki [5]: 3.7 nM
Ki [1]: 18 nM
solubility [7]: 296 µg/mL (≈ 675 µM)

CCC(=O)Nc1ccc(Sc2nc(Nc3cc(C)[nH]n3)cc(-c3ccccc3)n2)cc1
Ki [5]: < 1 nM
IC50 [6]: 870 nM
Ki [1]: 145 nM

CCC(=O)Nc1ccc(Sc2nc(Nc3cc(C)n[nH]3)cc(N3CCOCC3)n2)cc1
Ki [5]: 1.7 nM
Ki [1]: 14 nM
solubility [7]: 5.4 µg/mL (≈ 12.3 µM)

Cc1cc(Nc2cc(N3CCN(C)CC3)nc(Sc3ccc(NC(=O)C4CC4)cc3)n2)n[nH]1 [TOZASERTIB]
IC50 [6]: 19 nM
Activity [6]: tde

Cc1cc(Nc2nc(Sc3ccc(NC(=O)OC(C)(C)C)cc3)nc3ccccc23)n[nH]1
Ki [15]: > 4000 nM
IC50 [6]: 2870 nM
Ki [1]: 250 nM
Ki [8]: > 3000 nM

CCC(=O)Nc1ccc(Sc2nc(Nc3cc(C)[nH]n3)cc(N3CCN(C(C)(C)C)CC3)n2)cc1
Activity [6]: tde

CCC(=O)Nc1ccc(Sc2nc(Nc3cc(C)n[nH]3)cc(N3CCN(CC)CC3)n2)cc1
Ki [5]: < 1 nM
Ki [1]: 25 nM
solubility [7]: 114 µg/mL (≈ 245 µM)

Cc1cc(Nc2nc(Sc3ccc(Cl)cc3Cl)nc3ccccc23)n[nH]1
Ki [1]: > 1100 nM

COc1ccc(Sc2nc(Nc3cc(C)[nH]n3)c3ccccc3n2)cc1OC
Ki [1]: 120 nM
